# Measured values taken from patent US12478594B2, “Methods of treatment of kidney injury associated with infection or trauma” (University of Pittsburgh—Of the Commonwealth System of …, priority 2019, dated 2025).
# Experiments:
# [1] = test system: hemin treated kidney organoids; experiment: Hemin-induced injury of kidney organoids: collagen hybridizing peptide (CHP) staining; format: cell-based, human; details: 25 μM hemin two days, then 10 days with 1 μM, 3 μM, and 9 μM compound
# Protocol: A simple bioreactor-based method for growing renal organoids for long periods of time is provided, resulting in tissue with a high degree of maturation. Hemin-induced acute kidney injury produced by the oxidation of the heme of hemoglobin and myoglobin, causing oxidative stress and inflammation. […] These observations indicate that the kidney organoid model of AKI provides a valuable new platform to validate novel compounds in the setting of human AKI.
# Organoids were prepared essentially as described in Przepiorski A, Sander V, Tran T, Hollywood J A, Sorrenson B, Shih J H, Wolvetang E J, McMahon A P, Holm™ and Davidson A J. A Simple Bioreactor-Based Method to Generate Kidney Organoids from Pluripotent Stem Cells. Stem Cell Reports. 2018; 11:470-484. As shown in FIG. 8 (A), induced pluripotent stem cells (iPSCs) were cultured for three 3 days in with 8 μM of the Wnt agonist CHIR-99021 (CHIR, e.g., 6-[[2-[[4-(2,4-dichlorophenyl)-5-(5-methyl-1H-imidazol-2-yl)-2-pyrimidinyl]amino]ethyl] amino]-3-pyridinecarbonitrile) in BPEL (BSA poly(vinyl alcohol) essential lipids)), and were then cultured for an additional 11 days in DMEM with Knockout™ Serum Replacement (KOSR). At 14 days, DMEM F12 medium containing 25 μM Hemin (Sigma, H9039) is applied for two days, followed by 10 days with 1 μM, 3 μM, and 9 μM UPHD186 in DMEM with 10% KOSR. UPHD25 was evaluated in the same manner. […]
# [2] = CLP sepsis-associated AKI model: circulating creatinine; format: in vivo, Balb/c mice; details: early and delayed treatment regimens
# From the text: (§1) Balb/c mice (20-24 weeks old, male and female, Charles River Labs) were used. Mice were subjected to cecal ligation and puncture surgery (CLP) in accordance with methods reported by Rittirsch et al. (Rittirsch D, Huber-Lang M S, Flierd M A, Ward P A: Immunodesign of experimental sepsis by cecal ligation and puncture. Nature protocols 2009, 4(1):31-36). Specifically, Sepsis was induced by ligating 1 cm length of the cecum from the apex and two punctures with a 25-Gauge needle. Animals in the sham group had only laparotomy without any cecal punctures. Post-surgery treatment included 40 mL/kg Ringer's solution after surgery, and ceftriaxone (25 mg/kg), metronidazole (12.5 mg/kg), and buprenorphine (0.05 mg/kg), every 12 hours administered intraperitoneally (i.p.) for 3 days. Septic animals were randomly divided into four groups to receive a seven-day UPHD186 (50 mg/kg/day, i.p.) or vehicle (20% Cyclodextrin-2% DMSO in PBS, i.p.) treatment, starting from 48 hours or 96 hours post-CLP. To determine treatment efficacy, time-serial blood samples (approx. 10 μL) were collected through animals' saphenous vein on the days before/after the treatment session. All mice were followed for survival and sacrificed at the 3rd day post-treatment or the endpoint day 14 to collect kidneys and blood samples. […]
# [3] = test system: septic mice (cecal ligation and puncture); experiment: CLP sepsis-associated AKI model: sepsis survival to day 14; format: in vivo, Balb/c mice; details: 50 mg/kg/day i.p. 7 days
# From the text: as §1, with “post-CLP.” for “post-CLP. To determine treatment efficacy, time-serial blood samples (approx. 10 μL) were collected through animals' saphenous vein on the days before/after the treatment session. All mice were followed for survival and sacrificed at the 3rd day post-treatment or the endpoint day 14 to collect kidneys and blood samples.”
# Graph and statistical analyses were performed using GraphPad Prism 8 (GraphPad Software). […] Tukey's test was used to determine significance of differences among multiple groups and t test between two groups; survival rates were analyzed using log-rank Mantel-Cox test. […]
# [4] = test system: renal mRNA of inflammation, kidney injury, matrix remodeling, cell cycle, proliferation and fibrosis genes; experiment: CLP sepsis-associated AKI model: renal mRNA expression (quantitative PCR); format: in vivo, Balb/c mice
# From the text: (§2) Balb/c mice (20-24 weeks old, male and female, Charles River Labs) were used. Mice were subjected to cecal ligation and puncture surgery (CLP) in accordance with methods reported by Rittirsch et al. (Rittirsch D, Huber-Lang M S, Flierd M A, Ward P A: Immunodesign of experimental sepsis by cecal ligation and puncture. Nature protocols 2009, 4(1):31-36). Specifically, Sepsis was induced by ligating 1 cm length of the cecum from the apex and two punctures with a 25-Gauge needle. Animals in the sham group had only laparotomy without any cecal punctures. Post-surgery treatment included 40 mL/kg Ringer's solution after surgery, and ceftriaxone (25 mg/kg), metronidazole (12.5 mg/kg), and buprenorphine (0.05 mg/kg), every 12 hours administered intraperitoneally (i.p.) for 3 days. Septic animals were randomly divided into four groups to receive a seven-day UPHD186 (50 mg/kg/day, i.p.) or vehicle (20% Cyclodextrin-2% DMSO in PBS, i.p.) treatment, starting from 48 hours or 96 hours post-CLP. To determine treatment efficacy, time-serial blood samples (approx. 10 μL) were collected through animals' saphenous vein on the days before/after the treatment session. All mice were followed for survival and sacrificed at the 3rd day post-treatment or the endpoint day 14 to collect kidneys and blood samples.
# Total tissue RNA was isolated using TRIzol™ reagent (Life Technologies), DNase kit (Invitrogen), and converted into complementary DNA with High-Capacity cDNA Reverse Transcription Kits (Applied Biosystems). Quantitative polymerase chain reaction was performed on a Mx3000PTM system (Agilent Technologies) using primers (Table 1) and SYBR® Select Master Mix (2×) (Applied Biosystems). The expression of each target gene was assayed in duplicate and presented as fold change normalized by that of the endogenous control gene, gapdh expression.
# Kidney samples were examined at mRNA levels for genes controlling inflammation (nfκb, ccl20, traf1, traf2, icam), kidney injury (kim1), and matrix remodeling markers (lox, loxl1). Septic animals had higher levels of gene expression compared to sham controls (FIG. 4). […] (FIG. 3D).
# Kidney samples on day 14 (following CLP) were examined for mRNA levels for treatment effects on cell cycle regulation (cdkn1a), proliferation (ki67), and pro-fibrosis genes (plod2, fsp1, col1a1). Septic animals had higher levels of fsp1 and col1a1 expressions compared to sham controls (FIG. 7). Early treatment with UPHD186 further increased fsp1 (fold-increase, 3.3±1.3 vs. corresponding CLP+vehicle controls 2.2±1.1, P<0.05), whereas delayed treatment promoted ki67 and inhibited col1a1 expression (fold-increase, ki67: 1.6±0.7 vs. corresponding controls 1.0±0.5, P<0.01; col1a1, 2.2±0.9 vs. 3.7±2.4, P<0.05) (FIG. 5C). Thus, pro-fibrotic gene expression was increased in the recovery phase and early treatment further aggravated these changes; whereas delayed treatment promoted proliferation and attenuated fibrosis.
# [5] = test system: F4/80+ mononuclear cells in the kidneys; experiment: CLP sepsis-associated AKI model: kidney monocytes and their phenotype (immunofluorescence), day 3 post-treatment; format: in vivo, Balb/c mice; details: for F4/80+ cell numbers in the kidneys: 50 mg/kg/day i.p.
# From the text: as §2
# (§3) The left kidney was flushed with 10 mL ice-cold PBS, 10 mL 10% formalin through the left ventricle immediately after euthanasia, and the kidney was collected. For immunofluorescence staining, half of the kidney was fixed in 10% formalin for 2 h on ice, incubated in 30% (vol/vol) sucrose at 4° C. overnight, snap frozen in OCT (Sakura FineTek), and cut into 7-μm sections. Sections were treated with heated citrate (Antigen Unmasking Solution, Vector Laboratories), blocked in 10% (vol/vol) normal goat serum (Vector Laboratories) in 0.3M glycine-PBST for 1 h RT, incubated with primary antibodies at 4° C. overnight, and then corresponding secondary antibodies (Jackson ImmunoResearch) in PBS containing 10% of the blocking solution for 1 h RT. Stained sections were mounted in mounting Medium with DAPI (Vectashield H-1000, Vector Laboratories), and stored at −20° C. until observed under confocal microscopy (Fluoview 1000, Olympus). Three washes with PBST were performed between each step. The primary antibodies were: goat anti-ICAM (R&D Systems), rabbit anti-Col1 (Novus Biologicals), rabbit anti-fibronectin (Abcam), rabbit anti-vimentin (Abcam), rat anti-F4/80 (Abcam), rabbit anti-iNOS (Abcam), and phalloidin (Thermo Fisher Scientific) was used for staining of the brush-boarder. For immunohistochemistry analysis, the infused kidney was fixed in 10% formalin at 4° C. overnight, embedded in paraffin, and cut into 5-μm sections. Hematoxylin & eosin and Masson's trichrome stain were performed. Semiquantitative renal histology injury scoring was assessed by an investigator blinded to group assignment and the percentage of fibrosis per area was quantified using ImageJ (https://imagej.nih.gov/ij/; National Institutes of Health).
# Kidney samples collected at day 3 post-treatment were examined for presence numbers of monocytes in the kidney and their phenotypes (monocytes: F4/80^+, M1: F4/80^+iNOS^+, M2: F4/80^+MR^+).
# [6] = test system: renal fibrosis and histology injury; experiment: CLP sepsis-associated AKI model: renal histology (Masson's trichrome, hematoxylin & eosin), day 14; format: in vivo, Balb/c mice
# From the text: as §2
# as §3, with “The primary antibodies were: goat anti-ICAM (R&D Systems), rabbit anti-Col1 (Novus Biologicals), rabbit anti-fibronectin (Abcam), rabbit anti-vimentin (Abcam), rat anti-F4/80 (Abcam), rabbit anti-iNOS (Abcam), and phalloidin (Thermo Fisher Scientific) was used for staining of the brush-boarder. For immunohistochemistry analysis, the infused kidney was fixed in 10% formalin at 4° C. overnight, embedded in paraffin, and cut into 5-μm sections. Hematoxylin & eosin and Masson's trichrome stain were performed.” left out, “Health). […]” for “Health).”
# IL6 = experiment: CLP sepsis-associated AKI model: circulating cytokine IL6 (ELISA); format: in vivo, Balb/c mice; details: early and delayed treatment regimens
# From the text: as §1
# IGFBP7 = experiment: CLP sepsis-associated AKI model: renal IGFBP7 expression, day 14; format: in vivo, Balb/c mice
# From the text: as §2
# The left kidney was flushed with 10 mL ice-cold PBS, 10 mL 10% formalin through the left ventricle immediately after euthanasia, and the kidney was collected. For immunofluorescence staining, half of the kidney was fixed in 10% formalin for 2 h on ice, incubated in 30% (vol/vol) sucrose at 4° C. overnight, snap frozen in OCT (Sakura FineTek), and cut into 7-μm sections. […] Semiquantitative renal histology injury scoring was assessed by an investigator blinded to group assignment and the percentage of fibrosis per area was quantified using ImageJ (https://imagej.nih.gov/ij/; National Institutes of Health).
# Renal expression/location of the kidney stress marker insulin-like growth factor-binding protein 7 (IGFBP7) was measured at Day-14 kidneys. […]
compound,measurement,setting,value
"COC(=O)CCCSc1ccccc1 [UPHD25, methyl 4-(phenylsulfanyl)butanoate]","collagen (CHP staining), fibrosis",[1],reduction of collagen
"O=C(CCCSc1ccccc1)Nc1ccccc1O [UPHD186, N-(2-hydroxyphenyl)-4-(phenylsulfanyl)butanamide]","circulating creatinine, treatment effect",[2],neither creatinine (FIG. 5B) nor cytokine IL6 (FIG. 6) were affected
same,survival rate by day 14,"[3]; delayed treatment (96 h), vehicle 39%, P<0.01",79%
same,survival rate by day 14,"[3]; early treatment (48 h), vehicle 54%, P=0.32",69%
same,"inflammation, kidney injury and matrix remodeling marker mRNA (nfκb, ccl20, traf1, traf2, icam, kim1, lox, loxl1), effect","[4]; delayed treatment, day 3 post-treatment, compared to CLP controls",no effect on any marker expressions
same,ki67 renal mRNA,"[4]; delayed treatment, day 14 after CLP, controls 1.0±0.5",1.6±0.7 fold-increase
same,col1a1 renal mRNA,"[4]; delayed treatment, day 14 after CLP, controls 3.7±2.4",2.2±0.9 fold-increase
same,loxl1 renal mRNA,"[4]; early treatment, day 3 post-treatment, CLP 10.5±5.7",5.0±2.3 fold-increase
same,icam1 renal mRNA,"[4]; early treatment, day 3 post-treatment, CLP 25.3±4.1",9.1±2.3 fold-increase
same,traf2 renal mRNA,"[4]; early treatment, day 3 post-treatment, CLP 32.5±6.9",12.2±3.0 fold-increase
same,traf1 renal mRNA,"[4]; early treatment, day 3 post-treatment, CLP 51.5±9.1",17.1±3.6 fold-increase
same,"cdkn1a renal mRNA, effect","[4]; early treatment, day 14 (FIG. 5C)",increased cdkn1a
same,fsp1 renal mRNA,"[4]; early treatment, day 14 after CLP, CLP+vehicle 2.2±1.1",3.3±1.3 fold-increase
same,iNOS expression intensities (M1 marker),"[5]; delayed treatment (96 h post-CLP), CLP vehicle 3.1±1.4",1.4±0.3
same,F4/80+ cell numbers in the kidneys,"[5]; delayed treatment (from 96 h post-CLP), CLP vehicle 52.4±32.9",40.6±24.7 cells/field
same,"MR expression (M2 marker), treatment effect",[5]; early and delayed treatment groups,no treatment effects were observed
same,iNOS expression intensities (M1 marker),"[5]; early treatment (48 h post-CLP), CLP vehicle 1.2±0.7",2.7±0.3
same,F4/80+ cell numbers in the kidneys,"[5]; early treatment (from 48 h post-CLP), CLP vehicle 41.2±26.1",15.7±7.7 cells/field
same,histology injury score,"[6]; delayed treatment, vehicle 2.1±1.0, P=0.13",1.4±1.0
same,collagen volume fraction,"[6]; delayed treatment, vehicle 26.2±7.6, P=0.08",21.2±4.8%
same,histology injury score,"[6]; early treatment, CLP vehicle 1.7±0.9",2.6±1.3
same,collagen volume fraction,"[6]; early treatment, CLP vehicle 28.4±4.3",27.6±4.3%
same,"collagen (CHP staining), fibrosis",[1],reduced
same,"circulating cytokine IL6, treatment effect",IL6,neither creatinine (FIG. 5B) nor cytokine IL6 (FIG. 6) were affected
same,"overall IGFBP7 renal expression, effect","IGFBP7; delayed treatment, day 14",no such effect
same,"secretory pattern of IGFBP7, effect","IGFBP7; early and delayed treatment regimens, day 14 (data not shown)",neither treatment regimens changed the secretory pattern of IGFBP7
same,overall IGFBP7 renal expression,"IGFBP7; early treatment, day 14, CLP 396.9±109.0",674.1±190.5
